Consider seven molecules from patent US4672059A, “N-[[5-(trifluoromethyl)-6-methoxy-1-naphthalenyl]-thioxomethyl and carbonyl]-N-methylglycinamides” (American Home Products Corporation, priority 1985, dated 1987).

For one assay, the system named is aldose reductase. The conditions noted are these: literature; cited from earlier work.
Assay [1] has as its system dulcitol accumulation in tissues of galactose-fed rats (aldose reductase inhibiting property). In words: dulcitol accumulation in lens, sciatic nerve and diaphragm of galactosemic rats. In kind it is in vivo, male Sprague-Dawley rats. From the text: Such experiments are exemplified hereinbelow after the listing of the following general comments pertaining to these experiments:
(a) Four or more groups of six male rats, 50-70 g, Sprague-Dawley strain, were used. The first group, the control group, was fed a mixture of laboratory chow (roden Laboratory Chow, Purina) and glucose at 20% (w/w %) concentration. The untreated galactosemic group was fed a similar diet in which galactose is substituted for glucose. The third group was fed a diet prepared by mixing a given amount of the test compound with the galactose containing diet. The concentration of galactose in the diet of the treated groups was the same as that for the untreated galactosemic group.
(b) After four days, the animals were killed by decapitation. The eyeballs were removed and punctured with a razor blade; the freed lenses were rolled gently on filter paper and weighed. The sciatic nerves were dissected as completely as possible and weighed. Both tissues when frozen can be kept up to two weeks before being analyzed for dulcitol.
Only two minor reagent changes were made: (a) The rinsing mixture was an aqueous 5% (w/v) trichloroacetic acid solution and (b) the stock solution was prepared by dissolving 25 mg of dulcitol in 100 ml of an aqueous trichloroacetic acid solution. [N.B.: For each experiment the average value found in the tissue from rats fed the glucose diet was subtracted from the individual values found in the corresponding tissue in galactose-fed rats to obtain the amount of polyol accumulated.] […] In the present case the procedure of Hayman and Kinoshita was modified in that the final chromatography step was omitted in the preparation of the enzyme from bovine lens.
The figures under L, N and D represent the percentage decrease of dulcitol accumulation in the tissues of the lens, sciatic nerve and diaphragm, respectively, for treated rats as compared to untreated rats.

The mark [2] stands for this setting: 26 mg/kg/day in diet, 4 days, vs untreated galactosemic rats.

Molecules are shown by their SMILES.

Turning to `O=C(O)CN1C(=O)c2cccc3cccc(c23)C1=O` [1,3-Dioxo-1H-benz[de]isoquinoline-2(3H)-acetic acid], in the assay on aldose reductase, the “aldose reductase inhibition, in words” value is “effective inhibitor of aldose reductase”.

On to `COc1ccc2c(C(=S)N(C)CC(N)=O)cccc2c1C(F)(F)F` [compound 1, N-[[5-(trifluoromethyl)-6-methoxy-1-naphthalenyl]-thioxomethyl]-N-methylglycinamide], for which the “in vivo results compared with compound No. 9 (tolrestat)” value in assay [1] (5 mg/kg/day) is on record as “comparable results”. In addition, in assay [1] (5 mg/kg/day in diet, 4 days, vs untreated galactosemic rats), the “% lowering dulcitol accumulation in vivo, N (sciatic nerve)” value is reported as 54%.

For the molecule `COc1ccc2c(C(=S)N(C)CC(=O)N(C)C)cccc2c1C(F)(F)F` [compound 3, 2-[[[6-Methoxy-5-(trifluoromethyl)-1-naphthalenyl]thioxomethyl]methylamino]-N,N-dimethylacetamide], in assay [1] (55 mg/kg/day in diet, 4 days, vs untreated galactosemic rats), the “% lowering dulcitol accumulation in vivo, N (sciatic nerve)” value is 48%.

Consider `COC(=N)NC(=O)CN(C)C(=S)c1cccc2c(C(F)(F)F)c(OC)ccc12` [compound 4, N--[[[[5-(trifluoromethyl)-6-methoxy-1-naphthalenyl]thioxomethyl]-N--methylamino]acetyl]carbamimidic acid, methyl ester], for which the “% lowering dulcitol accumulation in vivo, N (sciatic nerve)” value in assay [1] (setting [2]) stood at 62%.

Regarding `COC(=O)NC(=O)CN(C)C(=S)c1cccc2c(C(F)(F)F)c(OC)ccc12` [compound 6, [[[5-(Trifluoromethyl)-6-methoxy-1-naphthalenyl]thioxomethyl](methylamino)acetyl]carbamic acid, Methyl Ester], the “% lowering dulcitol accumulation in vivo, N (sciatic nerve)” value is listed as 33% in assay [1] (8.4 mg/kg/day in diet, 4 days, vs untreated galactosemic rats) and 93% in assay [1] (setting [2]).

With `COc1ccc2c(C(=O)N(C)CC(N)=O)cccc2c1C(F)(F)F` [compound 8, N-[[6-Methoxy-5-(trifluoromethyl)-1-naphthalenyl]carbonyl]-N-methylglycinamide], the “% lowering dulcitol accumulation in vivo, D (diaphragm)” value in assay [1] (diaphragm, 28 mg/kg/day in diet, 4 days, vs untreated galactosemic rats) came to 42%. Further, the “% lowering dulcitol accumulation in vivo, N (sciatic nerve)” value in assay [1] (28 mg/kg/day in diet, 4 days, vs untreated galactosemic rats) worked out at 66%.

As to `O=C1NC(=O)[C@@]2(CCOc3ccc(F)cc32)N1` [sorbinil, (S)-6-Fluoro-2,3-dihydrospiro(4H-1-benzopyran-4,4'-imidazolidine)-2',5'-dione], the “aldose reductase inhibition, in words” value in the assay with aldose reductase is “aldose reductase inhibiting properties”.
